These results are taken from patent US20240059693A1, “FUSED BICYCLIC PYRAZOLE DERIVATIVES AND METHODS OF USE THEREOF FOR THE TREATMENT OF HERPESVIRUSES” (Merck Sharp & Dohme LLC, priority 2020, published 2024).

Test [1] relates to HSV2. Nature of the test: Viral qPCR assay, HSV2 in MRC5 cells. The test is classed as cell-based, Herpes Simplex Virus type 2. The conditions noted are these: read-out: HSV2 MRC5 Cell (EC50). An outline of the steps: (§1)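 EC50 from a 4-parameter fit of % effect on HSV2 genome copies, quantified by qPCR from a plasmid standard curve and normalized to infected DMSO and uninfected controls, with PPIA correction in one version. Virus-mixed Vero or MRC5 cells met 10-point 3-fold serial compound dilutions for ~72 h at 37 °C.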

For the next test, the system named is HCMV Strain AD169. Briefly: Viral qPCR assay, HCMV in MRC-5 cells. Format: cell-based, Human cytomegalovirus. Conditions: read-out: CMV MRC5 Cell (EC50). Put shortly:
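Viral genome copies, quantified by TaqMan qPCR with a plasmid standard curve after ~72 h infection of MRC-5 cells with AD169 at 0.05-0.1 pfu/cell, served as readout; PPIA normalisation used in one format. Compounds run as 10-point 3-fold series, in standard or 50% FBS media; EC50 by 4-parameter fit.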

Test [2] deals with VZV. Briefly: Viral qPCR assay, VZV in MRC5 cells. Format: cell-based, varicella zoster virus. Conditions: read-out: VZV MRC5 Cell (IC50). Put shortly:
(§2)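 EC50 from a 4-parameter fit of viral genome copies, quantified by TaqMan qPCR on proteinase K lysates against a plasmid standard, with or without PPIA normalization. Infected cells (VZV 0.04-0.1 pfu/cell in MeWo/MRC5; HSV-1 0.0005-0.004 pfu/cell in Vero/MRC5) were exposed to 10-point 3-fold dilutions for ~72 h at 37 °C.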
(In general: In qPCR the cycle at which signal appears reflects the starting amount.)

The subject of test [3] is HSV-1 Strain F. Briefly: Viral qPCR assay, HSV-1 in Vero cells. The test is classed as cell-based, Herpes Simplex Virus type 1. Conditions: read-out: HSV1 VERO Cell (EC50). Put shortly: as §2
For test [4], the target named is T1, varicella zoster virus DNA polymerase (Varicella-zoster virus, UniProt P09252).
T1 construct: made in house; host or cells: SF21 insect cells (baculovirus vector)
Briefly: VZV polymerase assay (AlphaLISA). The test is classed as biochemical. The conditions noted are these: VZV DNA polymerase 0.4 nM, 60 minutes at 37° C. Put shortly: (§3)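 Baculovirus/SF21-expressed polymerase (HCMV 0.2 nM; VZV 0.4 nM) pre-incubated 30 min at room temperature with compound in HEPES pH 7.5 buffer, then 60 min at 37 °C with 1.6 nM DIG-primer/template, sub-nM to 24 nM dNTPs and 0.8 nM biotin-dUTP. AlphaLISA detection; IC50 from 4-parameter fit.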

The subject of test [5] is HSV-1 Strain F. Nature of the test: Viral qPCR assay, HSV-1 in MRC5 cells. The test is classed as cell-based, Herpes Simplex Virus type 1. The conditions noted are these: read-out: HSV1 MRC5 Cell (EC50). An outline of the steps: as §2
In test [6] the target is T2, Human cytomegalovirus DNA polymerase (Human cytomegalovirus, UniProt P08546).
T2 construct: made in house; host or cells: SF21 insect cells (baculovirus vector)
Briefly: HCMV polymerase assay (AlphaLISA). Format: biochemical. Conditions: HCMV DNA polymerase 0.2 nM, 60 minutes at 37° C.; read-out: CMV (IC50). Put shortly: as §3

The test system of test [7] is VZV. Briefly: Viral qPCR assay, VZV in MeWo cells. The conditions noted are these: read-out: VZV MEWO Cell (IC50). Format: cell-based, varicella zoster virus. As to the method:
(§4) MRCS cells, Vero cells, and MeWo cells were obtained from ATCC and were maintained at 37° C./5% CO2/90% relative humidity in Minimal Essential Medium with 10% fetal bovine serum, […] L-glutamine, 100 units/ml penicillin and 100 ug/ml streptomycin. Assay plates were prepared by dispensing compounds dissolved in DMSO into wells of 384 well collagen-coated plates using an ECHO acoustic dispenser. Each compound was tested in a 10-point, serial 3-fold dilution. Controls included uninfected cells and infected cells treated only with DMSO. Assays were initiated by mixing selected cells, in suspension, with virus, and dispensing 50 μl/well infected cells to pre-plated compounds. Plates were incubated at 37° C./5% CO2/90% relative humidity for ˜72 hrs to permit genomic replication, and infected cells were lysed by the addition of an equal volume of lysis buffer (10 mM Tris-HCl, pH8, 50 mM KCl, 2 mM MgCl2, 0.45% NP-40, 0.45% Tween-20, and 100 μg/ml proteinase K). An aliquot of the lysate was transferred to a 384-well PCR plate and incubated at 56° C. for 1 hour and then at 95° C. for 10 min. Levels of a viral gene and of the cellular control, PPIA (Thermo Fisher Assay ID=Hs04194521_s1), were measured in separate 10 μL qPCR assays using TaqMan® Gene Expression Master Mix (Applied Biosystems), and an 7900HT Fast Real-Time PCR System with 384-Well Block Module. 7-point, serial 10-fold dilutions of a plasmid standard were run on each plate to generate a standard curve, and genome copies numbers were calculated by plotting experimental Ct onto linear regression of the standard curve. Viral genome copy numbers were normalized by cellular control copy number, and compound effects were normalized to the window defined by the controls. Calculated % effects were fit using a 4-parameter algorithm, and EC50 was reported.
as §4, with “gene” for “gene and of the cellular control, PPIA (Thermo Fisher Assay ID=Hs04194521_s1),”, “in” for “in separate”, “Compound effects on viral” for “Viral”, “number” for “numbers were normalized by cellular control copy number, and compound effects”
VZV: Strain Street was maintained as an infected cell stock in MRC-5 cells. It was assayed in MeWo or MRCS cells and was used at 0.04-0.1 pfu/cell. The assays were performed in growth medium. Primer-probe set was Thermo Fisher Assay ID=AIPAEXQ. HSV-1: Strain F Street was assayed in Vero or MRCS cells and was used at 0.0005-0.004 pfu/cell in growth medium. Primer-probe set was Thermo Fisher Assay ID=AIBJZIB

Test [8] relates to HSV2. Nature of the test: Viral qPCR assay, HSV2 in Vero cells. Format: cell-based, Herpes Simplex Virus type 2. Conditions: read-out: HSV2 VERO Cell (EC50). An outline of the steps:
as §1

Where [9] appears, read: Human alphaherpesvirus 2, MRC5, 72 h.
Setting [10] is: Human betaherpesvirus 5, AD169, MRC5, 72 h.
Setting [11] is: Human alphaherpesvirus 3, MRC5, 72 h.
Setting [12] is: Human alphaherpesvirus 1, Vero, 72 h.
[13] abbreviates: Human alphaherpesvirus 1, MRC5, 72 h.
[14] abbreviates: Human alphaherpesvirus 3, ~72 hrs.
Where [15] appears, read: Human alphaherpesvirus 2, Vero, 72 h.

Like-named read-outs stand apart in the source and are kept apart here.

T2 sequence (P08546 whole entry): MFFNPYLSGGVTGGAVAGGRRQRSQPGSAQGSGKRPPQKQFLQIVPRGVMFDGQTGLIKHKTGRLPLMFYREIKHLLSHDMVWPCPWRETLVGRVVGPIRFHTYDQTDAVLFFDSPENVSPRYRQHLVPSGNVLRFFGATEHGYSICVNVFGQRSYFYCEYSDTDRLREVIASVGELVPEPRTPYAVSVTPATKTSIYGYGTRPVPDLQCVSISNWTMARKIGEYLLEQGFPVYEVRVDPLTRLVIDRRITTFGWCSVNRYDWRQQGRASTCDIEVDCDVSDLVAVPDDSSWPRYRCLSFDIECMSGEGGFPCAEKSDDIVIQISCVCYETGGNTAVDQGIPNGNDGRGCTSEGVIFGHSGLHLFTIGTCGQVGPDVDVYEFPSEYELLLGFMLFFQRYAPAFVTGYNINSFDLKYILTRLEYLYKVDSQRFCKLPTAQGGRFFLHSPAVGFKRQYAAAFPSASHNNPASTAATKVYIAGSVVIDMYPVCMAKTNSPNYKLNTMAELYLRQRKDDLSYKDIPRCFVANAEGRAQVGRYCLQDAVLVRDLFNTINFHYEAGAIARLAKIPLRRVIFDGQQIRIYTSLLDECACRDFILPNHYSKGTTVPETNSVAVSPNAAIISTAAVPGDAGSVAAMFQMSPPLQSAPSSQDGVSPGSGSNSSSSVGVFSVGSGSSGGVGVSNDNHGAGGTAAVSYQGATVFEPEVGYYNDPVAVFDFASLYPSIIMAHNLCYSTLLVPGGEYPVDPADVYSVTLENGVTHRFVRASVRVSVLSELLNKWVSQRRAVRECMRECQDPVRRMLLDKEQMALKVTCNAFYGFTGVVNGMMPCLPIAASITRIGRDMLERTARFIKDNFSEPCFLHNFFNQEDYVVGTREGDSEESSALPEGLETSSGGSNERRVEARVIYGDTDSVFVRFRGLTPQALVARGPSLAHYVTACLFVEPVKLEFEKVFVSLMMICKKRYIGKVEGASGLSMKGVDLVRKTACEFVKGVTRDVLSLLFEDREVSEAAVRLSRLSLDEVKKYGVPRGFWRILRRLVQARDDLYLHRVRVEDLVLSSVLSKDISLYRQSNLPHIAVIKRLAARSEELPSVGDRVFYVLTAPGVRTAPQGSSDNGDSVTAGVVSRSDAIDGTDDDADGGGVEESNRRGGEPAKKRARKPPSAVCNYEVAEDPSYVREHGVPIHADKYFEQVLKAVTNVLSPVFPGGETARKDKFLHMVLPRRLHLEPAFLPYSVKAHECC
T1 sequence (P09252 whole entry): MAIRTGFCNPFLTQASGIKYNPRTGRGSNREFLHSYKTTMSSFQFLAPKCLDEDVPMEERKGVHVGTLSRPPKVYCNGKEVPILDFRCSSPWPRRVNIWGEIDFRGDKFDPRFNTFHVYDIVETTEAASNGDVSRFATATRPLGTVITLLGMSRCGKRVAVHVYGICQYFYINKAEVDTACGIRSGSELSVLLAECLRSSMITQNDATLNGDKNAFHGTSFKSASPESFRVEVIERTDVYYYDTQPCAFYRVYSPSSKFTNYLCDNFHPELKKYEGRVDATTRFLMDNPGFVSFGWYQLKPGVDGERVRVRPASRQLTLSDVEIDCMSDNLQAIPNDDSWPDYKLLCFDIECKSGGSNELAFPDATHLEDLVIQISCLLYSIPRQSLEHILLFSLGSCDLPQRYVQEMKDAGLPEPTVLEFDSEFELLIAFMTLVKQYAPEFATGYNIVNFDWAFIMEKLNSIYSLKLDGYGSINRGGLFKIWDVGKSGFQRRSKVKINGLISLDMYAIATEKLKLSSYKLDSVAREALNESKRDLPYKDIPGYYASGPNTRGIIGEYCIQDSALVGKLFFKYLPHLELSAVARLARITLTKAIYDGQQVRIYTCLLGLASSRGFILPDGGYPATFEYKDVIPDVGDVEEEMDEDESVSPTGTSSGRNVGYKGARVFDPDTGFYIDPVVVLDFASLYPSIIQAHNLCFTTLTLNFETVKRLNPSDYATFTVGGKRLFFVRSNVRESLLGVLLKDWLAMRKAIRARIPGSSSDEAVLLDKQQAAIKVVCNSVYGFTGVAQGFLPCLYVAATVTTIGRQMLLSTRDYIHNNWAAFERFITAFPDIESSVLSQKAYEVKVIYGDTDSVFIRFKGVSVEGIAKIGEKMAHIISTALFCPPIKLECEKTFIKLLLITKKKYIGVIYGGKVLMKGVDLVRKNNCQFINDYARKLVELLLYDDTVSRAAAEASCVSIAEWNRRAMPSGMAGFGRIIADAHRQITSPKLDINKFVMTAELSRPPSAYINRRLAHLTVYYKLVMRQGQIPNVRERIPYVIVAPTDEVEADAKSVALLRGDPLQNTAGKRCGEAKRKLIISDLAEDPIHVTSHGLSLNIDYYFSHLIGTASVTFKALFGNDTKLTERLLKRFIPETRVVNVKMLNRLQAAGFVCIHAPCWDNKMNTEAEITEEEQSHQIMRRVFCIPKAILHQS

Take `CC(C)C(=O)NCCn1nc(C(=O)NCc2ccc(Cl)cc2)c2c1CN(C[C@H]1CCC(=O)N1)C2` [Compound 25]: the EC50 (as a rule, the concentration at which the effect is half-maximal) in the test with HSV2 [1] (setting [9]) came to 16400 nM; in the test with HCMV Strain AD169 (setting [10]) it was 970 nM; in the test on HSV-1 Strain F [3] (setting [12]), 99000 nM; with HSV-1 Strain F [5] (setting [13]) it was 17400 nM; with HSV2 [8] (setting [15]), 99000 nM. The IC50 (as a rule, the concentration that inhibits the measured activity by half) in the test on VZV [2] (setting [11]) was 29000 nM; in test [4], 11.5 nM; in test [6], 11.3 nM; in the test on VZV [7] (setting [14]), 484 nM.
`Cn1nc(C(=O)NCc2ccc(Cl)c(F)c2)c2c1CN(C[C@H]1CCC(=O)N1)C2` [Compound 60]: the EC50 in the test on HSV2 [1] (setting [9]) is 5570 nM; with HCMV Strain AD169 (setting [10]), 970 nM; in the test on HSV-1 Strain F [3] (setting [12]), 2850 nM; in the test with HSV-1 Strain F [5] (setting [13]), 8350 nM; in the test on HSV2 [8] (setting [15]), 5460 nM. Moreover, the IC50 in the test with VZV [2] (setting [11]) is 5960 nM; in [4], 112 nM; in test [6], 143 nM; in the test with VZV [7] (setting [14]) it was 1470 nM.
Regarding `O=C1CC[C@H](CN2Cc3c(C(=O)NCc4ccc(Cl)cc4)nn(CCn4ccc(Cl)n4)c3C2)N1` [Compound 36], the EC50 with HSV2 [1] (setting [9]) was 960 nM; in the test on HCMV Strain AD169 (setting [10]), 453 nM; in the test on HSV-1 Strain F [3] (setting [12]) it was 1190 nM; in the test with HSV-1 Strain F [5] (setting [13]) it was 1270 nM; with HSV2 [8] (setting [15]), 2840 nM. Besides, the IC50 with VZV [2] (setting [11]) worked out at 856 nM; in test [4], 5.85 nM; in test [6], 8.94 nM; in the test on VZV [7] (setting [14]), 102 nM.
Take `O=C1CC[C@@H](CN2Cc3c(C(=O)NCc4ccc(Cl)cc4)nn(C4CCC(F)(F)C4)c3C2)N1` (single isomer, unassigned) [Compound 55]: the EC50 in the test with HCMV Strain AD169 (MRC5 cells, ~72 hrs) is 2710 nM; in the test with HSV-1 Strain F [3] (~72 hrs) it was 5600 nM; in the test with HSV2 [8] (~72 hrs), 13100 nM. The IC50 in test [4] was 26.9 nM; in test [6], 94.1 nM; in the test with VZV [7] (~72 hrs), 478 nM.
Consider `Cn1nc(C(=O)NCc2ccc(Cl)cc2)c2c1CC(C[C@@H]1CCC(=O)N1)C2` (single isomer, unassigned) [Compound 127], for which the EC50 stood at 278 nM in the test on HSV2 [1] (~72 hrs); 599 nM in the test on HCMV Strain AD169 (MRC5 cells, ~72 hrs); 240 nM in the test on HSV-1 Strain F [3] (~72 hrs); 694 nM in the test on HSV-1 Strain F [5] (~72 hrs); 364 nM in the test with HSV2 [8] (~72 hrs). The IC50 was determined as 407 nM in the test on VZV [2] (~72 hrs), 9.72 nM in test [4], 48.9 nM in test [6] and 130 nM with VZV [7] (~72 hrs).
`Cn1nc(C(=O)NCc2ccc(Cl)cc2)c2c1CC(C[C@H]1CCC(=O)N1)C2` (single isomer, unassigned) [Compound 129]: the EC50 amounted to 384 nM with HSV2 [1] (~72 hrs); 1570 nM in the test on HCMV Strain AD169 (MRC5 cells, ~72 hrs); 264 nM in the test with HSV-1 Strain F [3] (~72 hrs); 1020 nM in the test on HSV-1 Strain F [5] (~72 hrs); 422 nM in the test with HSV2 [8] (~72 hrs). Further, the IC50 in the test on VZV [2] (~72 hrs) was 371 nM; in test [4], 9.1 nM; in test [6] it was 74.2 nM; in the test with VZV [7] (~72 hrs), 154 nM.
As to `O=C1CC[C@H](CN2Cc3c(C(=O)NCc4ccc(Cl)cc4)nn(CC4CCCO4)c3C2)N1` (stereo partly drawn) [Compound 29], the EC50 was 3680 nM in the test with HCMV Strain AD169 (setting [10]), 5320 nM in the test on HSV-1 Strain F [3] (setting [12]) and 8930 nM in the test on HSV2 [8] (setting [15]). The values for the IC50 (in test [4]; in test [6]; in the test with VZV [7] (setting [14])) were 57.8 nM, 186 nM and 258 nM, respectively.
